Results published in ChEMBL document CHEMBL4024722, “Discovery of acylguanidine oseltamivir carboxylate derivatives as potent neuraminidase inhibitors” (Bioorg Med Chem, 2017).

Experiments:
[1] = Inhibition of Influenza A virus (A/Hong Kong/498/97(H3N2)) neuraminidase using 4-MU-NANA as substrate preincubated for 10 mins followed by substrate addition measured after 1 hr by fluorescence assay
[2] = Inhibition of Influenza A virus (A/Puerto Rico/8/1934(H1N1)) neuraminidase using 4-MU-NANA as substrate preincubated for 10 mins followed by substrate addition measured after 1 hr by fluorescence assay
[3] = Cytotoxicity against MDCK cells after 72 hrs by Alamar-Blue assay; type: cell-based, Canis lupus familiaris; details: dog

Structure (SMILES) | IC50 [1] | IC50 [2] | CC50 at 72 h [3]
CCC(CC)O[C@@H]1C=C(C(=O)O)C[C@H](NC(=N)NC(=O)CCc2ccccc2)[C@H]1NC(C)=O | 0.0094 µM | 0.0301 µM | 
CCC(CC)O[C@@H]1C=C(C(=O)O)C[C@H](NC(=N)NC(=O)c2ccncc2)[C@H]1NC(C)=O | 0.0161 µM | 0.0152 µM | 
CCC(CC)O[C@@H]1C=C(C(=O)O)C[C@H](NC(=N)NC(=O)CC(C)C)[C@H]1NC(C)=O | 0.0184 µM | 0.0883 µM | 
CCC(CC)O[C@@H]1C=C(C(=O)O)C[C@H](NC(=N)NC(=O)c2ccccc2Br)[C@H]1NC(C)=O | > 1 µM | > 1 µM | 
CCC(CC)O[C@@H]1C=C(C(=O)O)C[C@H](NC(=N)NC(=O)c2cccc(C(F)(F)F)c2)[C@H]1NC(C)=O | 0.0761 µM | 0.216 µM | 
CCC(=O)NC(=N)N[C@H]1CC(C(=O)O)=C[C@@H](OC(CC)CC)[C@@H]1NC(C)=O | 0.0114 µM | 0.0391 µM | > 1 µM
CCC(CC)O[C@@H]1C=C(C(=O)O)C[C@H](NC(=N)NC(=O)c2ccccc2C(F)(F)F)[C@H]1NC(C)=O | 0.911 µM | > 1 µM | 
CCC(CC)O[C@@H]1C=C(C(=O)O)C[C@H](NC(=N)NC(=O)c2cc(C)cc(C)c2)[C@H]1NC(C)=O | 0.159 µM | 0.155 µM | 
CCC(CC)O[C@@H]1C=C(C(=O)O)C[C@H](NC(=N)NC(=O)Cc2ccccc2C)[C@H]1NC(C)=O | 0.0228 µM | 0.0865 µM | 
CCC(CC)O[C@@H]1C=C(C(=O)O)C[C@H](NC(=N)NC(=O)c2cccc(C)c2)[C@H]1NC(C)=O | 0.0195 µM | 0.0115 µM | 
CCCC(=O)NC(=N)N[C@H]1CC(C(=O)O)=C[C@@H](OC(CC)CC)[C@@H]1NC(C)=O | 0.0112 µM | 0.0348 µM | 
CCC(CC)O[C@@H]1C=C(C(=O)O)C[C@H](NC(=N)NC(=O)CCc2ccc(OC)c(OC)c2)[C@H]1NC(C)=O | 0.00364 µM | 0.00143 µM | > 1 µM
CCCCC(=O)NC(=N)N[C@H]1CC(C(=O)O)=C[C@@H](OC(CC)CC)[C@@H]1NC(C)=O | 0.006 µM | 0.037 µM | 
CCC(CC)O[C@@H]1C=C(C(=O)O)C[C@H](NC(=N)NC(=O)c2ccccc2)[C@H]1NC(C)=O | 0.334 µM | 0.574 µM | 
C=CCCC(=O)NC(=N)N[C@H]1CC(C(=O)O)=C[C@@H](OC(CC)CC)[C@@H]1NC(C)=O | 0.0054 µM | 0.0081 µM | > 1 µM
CCC(CC)O[C@@H]1C=C(C(=O)O)C[C@H](NC(=N)NC(=O)c2ccccc2C)[C@H]1NC(C)=O | > 1 µM | > 1 µM | 
CCC(CC)O[C@@H]1C=C(C(=O)O)C[C@H](NC(=N)NC(=O)c2ccc([N+](=O)[O-])cc2)[C@H]1NC(C)=O | 0.0142 µM | 0.0201 µM | > 1 µM
CCC(CC)O[C@@H]1C=C(C(=O)O)C[C@H](NC(=N)NC(=O)CCCc2ccccc2)[C@H]1NC(C)=O | 0.0214 µM | 0.0649 µM | 
CCC(CC)O[C@@H]1C=C(C(=O)O)C[C@H](NC(=N)NC(=O)CCc2cccnc2)[C@H]1NC(C)=O | 0.0146 µM | 0.0102 µM | 
CCC(CC)O[C@@H]1C=C(C(=O)O)C[C@H](NC(=N)NC(=O)c2ccccc2OC)[C@H]1NC(C)=O | 0.125 µM | 0.0535 µM | 
CCC(CC)O[C@@H]1C=C(C(=O)O)C[C@H](NC(=N)NC(=O)c2ccc(OC)cc2)[C@H]1NC(C)=O | 0.215 µM | 0.0686 µM | 
CCC(CC)O[C@@H]1C=C(C(=O)O)C[C@H](NC(=N)NC(=O)Cc2ccc(Br)cc2)[C@H]1NC(C)=O | 0.008 µM | 0.0145 µM | > 1 µM
CCC(CC)O[C@@H]1C=C(C(=O)O)C[C@H](NC(=N)NC(=O)c2cccc(OC)c2)[C@H]1NC(C)=O | 0.533 µM | 0.175 µM | 
CCC(CC)O[C@@H]1C=C(C(=O)O)C[C@H](NC(=N)NC(=O)C(C)C)[C@H]1NC(C)=O | 0.0137 µM | 0.0382 µM | 
CCC(CC)O[C@@H]1C=C(C(=O)O)C[C@H](NC(=N)NC(=O)c2ccc(C)cc2)[C@H]1NC(C)=O | > 1 µM | > 1 µM | 
CCC(CC)O[C@@H]1C=C(C(=O)O)C[C@H](NC(=N)NC(=O)Cc2ccc3ccccc3c2)[C@H]1NC(C)=O | 0.0072 µM | 0.0211 µM | > 1 µM
CCC(CC)O[C@@H]1C=C(C(=O)O)C[C@H](NC(=N)NC(=O)c2ccccc2O)[C@H]1NC(C)=O | 0.185 µM | 0.0498 µM | 
CCC(CC)O[C@@H]1C=C(C(=O)O)C[C@H](NC(=N)NC(=O)Cc2ccc(C)cc2)[C@H]1NC(C)=O | 0.0095 µM | 0.0294 µM | 
